Like-named read-outs stand apart in the source and are kept apart here.
Columns and labels:
[1] = target: JAK2 (Homo sapiens (Human), UniProt O60674); conditions: ratio of IC50 at 1 mM ATP; cited from earlier work
[2] = target: T1, c-Mer (Homo sapiens (Human), UniProt Q12866); assay: biochemical
Experimental: (§1) 0.1 ul test compounds dissolved in DMSO were transferred from compound plates to white 384-well assay plates (Greiner [sequence] plates). […] The plate was protected from light and incubated at room temperature for 60 min.

[3] = target: Phospho-Axl (Homo sapiens (Human), UniProt P30530); assay: biochemical;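 note: test system is recombinant Axl protein that was first autophosphorylated with ATP and MgCl2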
Experimental: Autophosphorylation of Axl was carried out by incubating the recombinant Axl protein (Life Technologies, PV4275) in buffer containing 50 mM Tris, pH7.5, 0.2 mg/ml Axl, 5 mM ATP, 20 mM MgCl2 and 2 mM DTT at room temperature for 1 hour.
as §1

[4] = target: Tyro3 (Homo sapiens (Human), UniProt Q06418); assay: biochemical; conditions: read-out: Tyro3IC50
Experimental: as §1

[5] = target: T1, c-Mer; conditions: read-out: c-Mer IC50; HTRF, 60 min room temperature
Experimental: as §1

[6] = tested on: NK cells; conditions: Paolino et al., 2014; cited from earlier work
[7] = tested on: tumor models with different histologies; conditions: Paolino et al., 2014; cited from earlier work

Sequence of Tyro3 (Q06418 41-890): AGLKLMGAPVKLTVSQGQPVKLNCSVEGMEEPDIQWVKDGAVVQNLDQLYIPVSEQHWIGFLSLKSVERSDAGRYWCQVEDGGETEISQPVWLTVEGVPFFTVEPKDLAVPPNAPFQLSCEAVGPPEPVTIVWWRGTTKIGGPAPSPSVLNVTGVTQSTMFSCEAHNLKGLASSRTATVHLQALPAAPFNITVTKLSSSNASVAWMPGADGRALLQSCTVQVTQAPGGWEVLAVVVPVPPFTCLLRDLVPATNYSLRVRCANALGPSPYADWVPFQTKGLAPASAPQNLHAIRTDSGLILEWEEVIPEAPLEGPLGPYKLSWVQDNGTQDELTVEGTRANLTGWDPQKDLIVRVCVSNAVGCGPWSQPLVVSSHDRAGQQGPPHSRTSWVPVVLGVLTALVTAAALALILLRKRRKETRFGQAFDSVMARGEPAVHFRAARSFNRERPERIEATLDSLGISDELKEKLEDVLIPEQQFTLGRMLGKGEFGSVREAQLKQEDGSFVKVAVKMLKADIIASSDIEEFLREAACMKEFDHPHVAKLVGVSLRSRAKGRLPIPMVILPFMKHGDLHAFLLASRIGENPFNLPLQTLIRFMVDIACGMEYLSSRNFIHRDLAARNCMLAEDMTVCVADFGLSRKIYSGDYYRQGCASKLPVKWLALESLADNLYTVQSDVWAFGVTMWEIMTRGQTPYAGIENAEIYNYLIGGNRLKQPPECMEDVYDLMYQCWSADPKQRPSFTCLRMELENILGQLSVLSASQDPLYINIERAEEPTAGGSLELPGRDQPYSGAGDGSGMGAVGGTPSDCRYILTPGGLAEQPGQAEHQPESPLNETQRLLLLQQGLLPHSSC
Sequence of Phospho-Axl (P30530 26-894): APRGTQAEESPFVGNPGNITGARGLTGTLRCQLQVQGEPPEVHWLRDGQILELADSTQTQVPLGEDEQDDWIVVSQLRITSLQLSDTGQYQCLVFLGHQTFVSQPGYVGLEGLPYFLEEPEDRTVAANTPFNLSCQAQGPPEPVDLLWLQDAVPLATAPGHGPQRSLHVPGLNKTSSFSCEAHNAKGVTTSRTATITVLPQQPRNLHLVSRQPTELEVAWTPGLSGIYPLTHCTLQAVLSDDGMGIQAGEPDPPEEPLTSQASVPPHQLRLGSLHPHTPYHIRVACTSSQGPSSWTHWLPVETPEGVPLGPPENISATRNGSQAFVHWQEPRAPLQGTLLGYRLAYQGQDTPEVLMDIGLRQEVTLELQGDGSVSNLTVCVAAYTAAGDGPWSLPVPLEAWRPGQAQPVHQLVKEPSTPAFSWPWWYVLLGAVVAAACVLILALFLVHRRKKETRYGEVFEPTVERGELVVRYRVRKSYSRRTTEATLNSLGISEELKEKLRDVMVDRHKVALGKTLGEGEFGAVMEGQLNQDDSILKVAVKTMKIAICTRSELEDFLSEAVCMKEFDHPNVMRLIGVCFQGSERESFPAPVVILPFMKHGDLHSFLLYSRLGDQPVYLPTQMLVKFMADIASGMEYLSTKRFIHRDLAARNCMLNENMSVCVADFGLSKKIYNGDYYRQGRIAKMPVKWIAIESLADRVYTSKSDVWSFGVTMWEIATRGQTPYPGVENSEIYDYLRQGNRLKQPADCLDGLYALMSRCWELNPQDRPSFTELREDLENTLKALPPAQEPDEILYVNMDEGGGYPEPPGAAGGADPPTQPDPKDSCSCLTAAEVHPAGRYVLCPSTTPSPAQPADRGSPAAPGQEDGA
T1 sequence (Q12866 21-999): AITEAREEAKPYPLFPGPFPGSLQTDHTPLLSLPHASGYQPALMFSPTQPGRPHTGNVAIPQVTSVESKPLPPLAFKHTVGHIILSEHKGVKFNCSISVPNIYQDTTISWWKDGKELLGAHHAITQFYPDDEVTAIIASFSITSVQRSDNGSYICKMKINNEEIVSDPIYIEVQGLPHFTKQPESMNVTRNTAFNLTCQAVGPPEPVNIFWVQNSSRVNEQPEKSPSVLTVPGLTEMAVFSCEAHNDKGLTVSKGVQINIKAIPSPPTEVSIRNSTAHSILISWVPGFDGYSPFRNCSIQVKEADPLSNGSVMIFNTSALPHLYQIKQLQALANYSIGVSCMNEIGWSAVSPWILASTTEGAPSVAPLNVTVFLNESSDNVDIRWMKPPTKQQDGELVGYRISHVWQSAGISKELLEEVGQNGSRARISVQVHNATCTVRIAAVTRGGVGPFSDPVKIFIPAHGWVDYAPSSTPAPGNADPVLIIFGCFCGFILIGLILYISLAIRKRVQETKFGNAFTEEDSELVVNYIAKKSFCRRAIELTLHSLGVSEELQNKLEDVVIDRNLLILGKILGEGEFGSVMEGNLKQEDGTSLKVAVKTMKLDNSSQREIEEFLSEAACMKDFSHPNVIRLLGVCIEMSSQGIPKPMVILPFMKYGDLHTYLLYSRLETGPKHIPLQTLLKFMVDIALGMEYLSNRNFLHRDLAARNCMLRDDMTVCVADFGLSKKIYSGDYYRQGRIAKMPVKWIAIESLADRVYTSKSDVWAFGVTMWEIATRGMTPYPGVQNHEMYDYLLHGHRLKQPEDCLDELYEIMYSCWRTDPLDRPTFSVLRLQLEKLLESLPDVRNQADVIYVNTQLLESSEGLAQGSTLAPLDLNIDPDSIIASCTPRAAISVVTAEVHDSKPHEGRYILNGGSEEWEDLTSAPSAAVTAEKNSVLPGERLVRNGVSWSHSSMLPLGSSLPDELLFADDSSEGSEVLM
Sequence of JAK2 (O60674 whole entry, species assumed): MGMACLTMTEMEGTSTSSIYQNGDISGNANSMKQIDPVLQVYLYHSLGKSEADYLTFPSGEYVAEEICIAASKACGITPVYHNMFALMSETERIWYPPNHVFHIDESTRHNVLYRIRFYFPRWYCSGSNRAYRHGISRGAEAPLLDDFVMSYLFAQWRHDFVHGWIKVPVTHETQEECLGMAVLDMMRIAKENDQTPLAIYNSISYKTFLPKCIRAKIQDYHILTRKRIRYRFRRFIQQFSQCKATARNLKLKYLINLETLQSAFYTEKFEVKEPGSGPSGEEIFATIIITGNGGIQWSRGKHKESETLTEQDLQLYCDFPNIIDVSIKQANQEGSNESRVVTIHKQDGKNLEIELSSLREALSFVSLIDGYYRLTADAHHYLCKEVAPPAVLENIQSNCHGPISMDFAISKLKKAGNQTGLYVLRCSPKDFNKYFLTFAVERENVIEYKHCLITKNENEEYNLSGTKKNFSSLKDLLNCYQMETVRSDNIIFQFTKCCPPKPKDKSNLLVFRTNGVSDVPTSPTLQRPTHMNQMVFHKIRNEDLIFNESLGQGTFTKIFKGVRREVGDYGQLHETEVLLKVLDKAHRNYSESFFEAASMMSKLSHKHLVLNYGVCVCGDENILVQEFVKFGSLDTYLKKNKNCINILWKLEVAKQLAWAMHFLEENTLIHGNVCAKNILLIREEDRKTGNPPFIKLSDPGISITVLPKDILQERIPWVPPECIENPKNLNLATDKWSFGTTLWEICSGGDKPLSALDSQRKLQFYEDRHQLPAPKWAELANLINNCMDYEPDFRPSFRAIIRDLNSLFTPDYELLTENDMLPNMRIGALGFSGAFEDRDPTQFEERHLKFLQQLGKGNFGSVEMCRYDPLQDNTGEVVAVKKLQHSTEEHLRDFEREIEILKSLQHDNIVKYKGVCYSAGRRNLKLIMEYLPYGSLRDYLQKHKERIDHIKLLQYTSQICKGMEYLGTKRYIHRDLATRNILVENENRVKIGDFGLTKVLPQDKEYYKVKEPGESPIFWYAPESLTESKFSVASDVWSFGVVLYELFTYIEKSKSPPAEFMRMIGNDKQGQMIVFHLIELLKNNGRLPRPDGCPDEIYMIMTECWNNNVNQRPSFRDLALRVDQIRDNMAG

SMILES	IC50 ([3]; HTRF, 60 min room temperature)	IC50 ([4]; HTRF, 60 min room temperature)	IC50 [5]	IC50 [4]	other results
N#CCC1(n2cc(-c3ncnc4[nH]ccc34)cn2)CN(C2CCN(C(=O)c3ccnc(C(F)(F)F)n3)CC2)C1 [Compound 9, [3-[4-(7H-pyrrolo[2,3-d]pyrimidin-4-yl)-1H-pyrazol-1-yl]-1-(1-{[2-(trifluoromethyl)pyrimidin-4-yl]carbonyl}piperidin-4-yl)azetidin-3-yl]acetonitrile]					JAK2/JAK1 [1]: >10
Cn1ccc(C(=O)NCC2(c3cccc(-c4ncnc5[nH]ccc45)c3)Cc3ccccc3C2)n1 [Example 29]	1000 to 3000 nM	> 3000 nM			IC50 [2]: 1000 to 3000 nM
Cc1ncoc1C(=O)NCC1(c2cccc(-c3ncnc4[nH]ccc34)c2)Cc2ccccc2C1 [Example 30]	500 to 1000 nM	> 3000 nM			IC50 [2]: 500 to 1000 nM
Cn1nccc1C(=O)NCC1(c2cccc(-c3ncnc4[nH]ccc34)c2)Cc2ccccc2C1 [Example 32, 1-Methyl-N-({2-[3-(7H-pyrrolo[2,3-d]pyrimidin-4-yl)phenyl]-2,3-dihydro-1H-inden-2-yl}methyl)-1H-pyrazole-5-carboxamide]	> 3000 nM		> 3000 nM	> 3000 nM	
NCC1(c2cccc(-c3ncnc4[nH]ccc34)c2)Cc2ccc(CN3CC(O)C3)cc2C1 (stereo not drawn) [Example 48, 1-((2-(3-(7H-Pyrrolo[2,3-d]pyrimidin-4-yl)phenyl)-2-(aminomethyl)-2,3-dihydro-1H-inden-5-yl)methyl)azetidin-3-ol]	> 3000 nM	1000 to 3000 nM	> 3000 nM		
N#Cc1ccc2c(c1)CC(CN)(c1cccc(-c3ncnc4[nH]ccc34)c1)C2 (stereo not drawn) [Example 49, 2-(Aminomethyl)-2-[3-(7H-pyrrolo[2,3-d]pyrimidin-4-yl)phenyl]indane-5-carbonitrile]	< 500 nM	1000 to 3000 nM	< 500 nM		
NCC1(c2cccc(-c3ncnc4[nH]ccc34)c2)Cc2ccc(N3CC(F)C3)cc2C1 (stereo not drawn) [Example 56, 1-{5-(3-Fluoroazetidin-1-yl)-2-[3-(7H-pyrrolo[2,3-d]pyrimidin-4-yl)phenyl]-2,3-dihydro-1H-inden-2-yl}methanamine]	< 500 nM	1000 to 3000 nM	< 500 nM		
CCn1cnc(-c2ccc3c(c2)CC(CN)(c2cccc(-c4ncnc5[nH]ccc45)c2)C3)c1 (stereo not drawn) [Example 76, 1-{5-(1-Ethyl-1H-imidazol-4-yl)-2-[3-(7H-pyrrolo[2,3-d]pyrimidin-4-yl)phenyl]-2,3-dihydro-1H-inden-2-yl}methanamine]		500 to 1000 nM	< 500 nM		IC50 [3]: < 500 nM
CCCCNc1nc(-c2cccc(C3(CN)Cc4ccccc4C3)c2)c2cc[nH]c2n1 [Example 80, 4-{3-[2-(Aminomethyl)-2,3-dihydro-1H-inden-2-yl]phenyl}-N-butyl-7H-pyrrolo[2,3-d]pyrimidin-2-amine]	< 500 nM		< 500 nM	< 500 nM	
CNc1nc(-c2cccc(C3(CN)Cc4ccccc4C3)c2)c2cc[nH]c2n1 [Example 86, 4-{3-[2-(Aminomethyl)-2,3-dihydro-1H-inden-2-yl]phenyl}-N-methyl-7H-pyrrolo[2,3-d]pyrimidin-2-amine]	< 500 nM	1000 to 3000 nM	< 500 nM		
CCNc1nc(-c2cccc(C3(CN)Cc4ccccc4C3)c2)c2cc[nH]c2n1 [Example 87, 4-{3-[2-(Aminomethyl)-2,3-dihydro-1H-inden-2-yl]phenyl}-N-ethyl-7H-pyrrolo[2,3-d]pyrimidin-2-amine]	< 500 nM	1000 to 3000 nM	< 500 nM		
CC(C)Nc1nc(-c2cccc(C3(CN)Cc4ccccc4C3)c2)c2cc[nH]c2n1 [Example 88, 4-{3-[2-(Aminomethyl)-2,3-dihydro-1H-inden-2-yl]phenyl}-N-isopropyl-7H-pyrrolo[2,3-d]pyrimidin-2-amine]	< 500 nM		< 500 nM	> 3000 nM	
NCC1(c2cccc(-c3nc(NC4CCC4)nc4[nH]ccc34)c2)Cc2ccccc2C1 [Example 89, 4-{3-[2-(Aminomethyl)-2,3-dihydro-1H-inden-2-yl]phenyl}-N-cyclobutyl-7H-pyrrolo[2,3-d]pyrimidin-2-amine]	< 500 nM		< 500 nM	< 500 nM	
NCC1(c2cccc(-c3nc(NC4CCCC4)nc4[nH]ccc34)c2)Cc2ccccc2C1 [Example 90, 4-{3-[2-(Aminomethyl)-2,3-dihydro-1H-inden-2-yl]phenyl}-N-cyclopentyl-7H-pyrrolo[2,3-d]pyrimidin-2-amine]	< 500 nM	500 to 1000 nM	< 500 nM		
NCC1(c2cccc(-c3nc(NC4CCCCC4)nc4[nH]ccc34)c2)Cc2ccccc2C1 [Example 91, 4-{3-[2-(Aminomethyl)-2,3-dihydro-1H-inden-2-yl]phenyl}-N-cyclohexyl-7H-pyrrolo[2,3-d]pyrimidin-2-amine]	< 500 nM	1000 to 3000 nM	< 500 nM		
Cn1cc(Nc2nc(-c3ccnc(C4(CN)Cc5ccccc5C4)c3)c3cc[nH]c3n2)cn1 [Example 94, 4-{2-[2-(Aminomethyl)-2,3-dihydro-1H-inden-2-yl]pyridin-4-yl}-N-(1-methyl-1H-pyrazol-4-yl)-7H-pyrrolo[2,3-d]pyrimidin-2-amine]	< 500 nM		< 500 nM	< 500 nM	
NCC1(c2cc(-c3nc(Nc4cccc(CN5CCOCC5)c4)nc4[nH]ccc34)ccn2)Cc2ccccc2C1 [Example 95, 4-{2-[2-(Aminomethyl)-2,3-dihydro-1H-inden-2-yl]pyridin-4-yl}-N-[3-(morpholin-4-ylmethyl)phenyl]-7H-pyrrolo[2,3-d]pyrimidin-2-amine]	< 500 nM		< 500 nM	< 500 nM	
COc1cnc2[nH]ccc2c1-c1ccnc(C2(CN)Cc3ccccc3C2)c1 [Example 96, 1-{2-[4-(5-Methoxy-1H-pyrrolo[2,3-b]pyridin-4-yl)pyridin-2-yl]-2,3-dihydro-1H-inden-2-yl}methanamine]			< 500 nM	< 500 nM	IC50 [3]: < 500 nM
NCC1(c2cc(-c3ccnc4[nH]ncc34)ccn2)Cc2ccccc2C1 [Example 97, 1-{2-[4-(1H-Pyrazolo[3,4-b]pyridin-4-yl)pyridin-2-yl]-2,3-dihydro-1H-inden-2-yl}methanamine]	< 500 nM	1000 to 3000 nM			IC50 [2]: < 500 nM
CCOc1cn(-c2ccc(F)cc2C)nc1C(=O)Nc1ccc(Oc2ccnc3cc(OC)c(OC)cc23)c(F)c1 [LDC1267]					NK cell activation [6]: activates NK cells; metastasis in tumor models [7]: blocks metastasis in tumor models with different histologies

Reference: patent US10053465B2 (Incyte Corporation, priority 2015, dated 2018)
